Assay: Solubility in solvents at 25° C. (Table 1)
Type: physicochemical

| Solubility (25° C.) g/100 ml (ethyl acetate) [g/100 ml] | Solubility (25° C.) g/100 ml (toluene) [g/100 ml] | Compound | solubility in the solvents compared with compound (2) (ethyl acetate and toluene, comparison in words) |
| --- | --- | --- | --- |
| 0.2 | 0.9 | c1ccc(C2(c3ccccc3)c3cc(-c4ccc5ccccc5c4)ccc3-c3ccc4cc(-c5ccc6ccccc6c5)ccc4c32)cc1 [Compound (2), 3,9-dinaphthalene-2-yl-11,11-diphenyl-11H-benzo[a]fluorene, reference compound] | – |
| 1 | 8 | c1ccc(C2(c3ccccc3)c3cc(-c4ccc5ccccc5c4)ccc3-c3c2cc(-c2ccc4ccccc4c2)c2ccccc32)cc1 [Compound (1-13)] | apparently more excellent in solubility in the solvents than the compound (2) |
